According to ChEMBL document CHEMBL2016457, “Discovery of potent and orally bioavailable 17β-hydroxysteroid dehydrogenase type 3 inhibitors” (Bioorg Med Chem, 2012):
Activity calls are given as the source filed them. No rule for the calls is given here.

How the values were obtained:
[1] = molecular target: T1, 17-beta-hydroxysteroid dehydrogenase type 1 (Homo sapiens) (UniProt P14061); assay: Inhibition of human recombinant 17-beta-HSD1 expressed in human HeLa cells using estrone as substrate preincubated for 30 mins prior substrate addition measured after 120 mins by spectrophotometry; type: cell-based
T1 sequence (whole entry): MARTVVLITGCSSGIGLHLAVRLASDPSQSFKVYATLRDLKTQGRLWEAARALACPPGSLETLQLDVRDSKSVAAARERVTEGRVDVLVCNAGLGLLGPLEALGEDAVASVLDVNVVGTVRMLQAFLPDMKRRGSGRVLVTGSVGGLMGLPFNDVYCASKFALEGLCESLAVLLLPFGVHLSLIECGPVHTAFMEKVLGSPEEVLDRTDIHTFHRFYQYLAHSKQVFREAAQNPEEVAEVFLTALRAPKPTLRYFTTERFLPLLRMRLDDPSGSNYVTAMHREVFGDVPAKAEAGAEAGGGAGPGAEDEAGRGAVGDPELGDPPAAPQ

[2] = molecular target: T2, Androgen receptor (Homo sapiens) (UniProt P10275); assay: Agonist activity at human androgen receptor expressed in human HeLa cells assessed as DHT-induced response after 40 hrs by luciferase/beta-galactosidase-based reporter gene assay; type: functional, cell-based
T2 sequence (whole entry): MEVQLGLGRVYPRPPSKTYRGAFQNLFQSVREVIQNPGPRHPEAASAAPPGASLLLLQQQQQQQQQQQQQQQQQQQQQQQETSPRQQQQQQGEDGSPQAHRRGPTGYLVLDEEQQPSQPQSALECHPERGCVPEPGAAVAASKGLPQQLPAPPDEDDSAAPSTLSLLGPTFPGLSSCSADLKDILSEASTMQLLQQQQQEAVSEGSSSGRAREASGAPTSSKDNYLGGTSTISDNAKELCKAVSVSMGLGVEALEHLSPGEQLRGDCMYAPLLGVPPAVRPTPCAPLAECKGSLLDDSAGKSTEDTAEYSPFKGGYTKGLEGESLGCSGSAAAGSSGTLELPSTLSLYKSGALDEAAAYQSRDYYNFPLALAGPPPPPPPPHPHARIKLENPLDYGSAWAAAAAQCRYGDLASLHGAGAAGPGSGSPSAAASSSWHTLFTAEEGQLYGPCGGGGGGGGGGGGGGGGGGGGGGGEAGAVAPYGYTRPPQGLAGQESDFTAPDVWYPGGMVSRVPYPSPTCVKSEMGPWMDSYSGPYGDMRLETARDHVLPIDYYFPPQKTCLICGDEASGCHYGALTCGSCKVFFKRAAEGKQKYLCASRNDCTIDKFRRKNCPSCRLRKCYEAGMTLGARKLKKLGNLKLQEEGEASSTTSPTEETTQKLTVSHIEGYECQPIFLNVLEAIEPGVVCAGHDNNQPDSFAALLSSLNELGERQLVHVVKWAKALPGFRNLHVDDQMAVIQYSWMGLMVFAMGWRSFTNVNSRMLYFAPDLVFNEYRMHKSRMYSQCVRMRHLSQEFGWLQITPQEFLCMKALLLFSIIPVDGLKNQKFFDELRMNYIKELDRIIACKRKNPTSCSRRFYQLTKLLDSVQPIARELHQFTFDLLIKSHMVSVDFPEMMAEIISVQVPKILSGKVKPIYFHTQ

[3] = molecular target: T3, Estrogen receptor (Homo sapiens) (UniProt P03372); assay: Agonist activity at human Estrogen receptor ERalpha expressed in human HeLa cells assessed as DHT-induced response after 40 hrs by luciferase/beta-galactosidase-based reporter gene assay; type: functional, cell-based
T3 sequence (whole entry): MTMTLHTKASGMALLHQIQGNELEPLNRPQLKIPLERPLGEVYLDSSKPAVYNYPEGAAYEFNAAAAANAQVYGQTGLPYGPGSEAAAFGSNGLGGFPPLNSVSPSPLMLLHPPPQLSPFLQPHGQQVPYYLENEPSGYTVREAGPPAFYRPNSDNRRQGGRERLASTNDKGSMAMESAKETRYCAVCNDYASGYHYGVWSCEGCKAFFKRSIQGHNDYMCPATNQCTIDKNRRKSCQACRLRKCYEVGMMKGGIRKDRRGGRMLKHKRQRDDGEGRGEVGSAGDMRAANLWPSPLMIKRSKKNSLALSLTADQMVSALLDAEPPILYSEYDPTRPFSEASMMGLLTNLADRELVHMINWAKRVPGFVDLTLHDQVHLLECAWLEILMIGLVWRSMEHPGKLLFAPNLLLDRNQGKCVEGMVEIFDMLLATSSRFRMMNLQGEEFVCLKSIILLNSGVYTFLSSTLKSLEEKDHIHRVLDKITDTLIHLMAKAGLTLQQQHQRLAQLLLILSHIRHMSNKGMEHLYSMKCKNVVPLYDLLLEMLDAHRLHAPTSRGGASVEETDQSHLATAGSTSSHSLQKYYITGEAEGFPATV

[4] = molecular target: T4, Glucocorticoid receptor (Homo sapiens) (UniProt P04150); assay: Agonist activity at human Glucocorticoid receptor expressed in human HeLa cells assessed as DHT-induced response after 40 hrs by luciferase/beta-galactosidase-based reporter gene assay; type: functional, cell-based
T4 sequence (whole entry): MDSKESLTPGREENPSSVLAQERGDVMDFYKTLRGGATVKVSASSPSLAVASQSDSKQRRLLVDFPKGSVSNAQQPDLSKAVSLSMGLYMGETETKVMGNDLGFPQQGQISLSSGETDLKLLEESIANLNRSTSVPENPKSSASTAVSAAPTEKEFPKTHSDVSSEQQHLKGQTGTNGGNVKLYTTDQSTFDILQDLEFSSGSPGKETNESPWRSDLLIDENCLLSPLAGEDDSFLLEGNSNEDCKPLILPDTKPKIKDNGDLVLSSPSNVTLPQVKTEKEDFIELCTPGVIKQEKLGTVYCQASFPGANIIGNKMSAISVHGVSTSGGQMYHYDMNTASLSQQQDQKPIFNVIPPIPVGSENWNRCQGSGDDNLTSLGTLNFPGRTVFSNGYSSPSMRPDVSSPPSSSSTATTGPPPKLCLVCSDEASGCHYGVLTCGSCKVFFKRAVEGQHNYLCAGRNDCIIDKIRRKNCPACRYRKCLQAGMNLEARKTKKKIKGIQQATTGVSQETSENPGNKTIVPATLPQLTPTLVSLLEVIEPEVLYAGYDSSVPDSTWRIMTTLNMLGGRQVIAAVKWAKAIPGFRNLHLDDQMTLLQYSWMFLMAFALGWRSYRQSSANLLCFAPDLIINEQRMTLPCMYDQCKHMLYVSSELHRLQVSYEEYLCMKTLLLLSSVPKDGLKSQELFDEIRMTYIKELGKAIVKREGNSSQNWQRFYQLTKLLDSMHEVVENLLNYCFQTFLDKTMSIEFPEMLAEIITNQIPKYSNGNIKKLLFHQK

[5] = molecular target: T2, Androgen receptor (Homo sapiens); assay: Antagonist activity at human androgen receptor expressed in human HeLa cells assessed as inhibition of DHT-induced response after 40 hrs by luciferase/beta-galactosidase-based reporter gene assay; type: functional, cell-based
[6] = molecular target: T3, Estrogen receptor (Homo sapiens); assay: Antagonist activity at human ERalpha receptor expressed in human HeLa cells assessed as inhibition of DHT-induced response after 40 hrs by luciferase/beta-galactosidase-based reporter gene assay; type: functional, cell-based

Row | inhibition [1] | Activity [2] | Activity [3] | Activity [4] | Activity [5] | Activity [6] | Structure (SMILES)
1 | inactive | inactive | inactive | inactive | inactive | inactive | COc1ccc(N2C(=O)/C(=C/c3cc(Cl)c(O)c(Cl)c3)OC2=S)cc1
2 | inactive | inactive | inactive | inactive | inactive | inactive | COc1ccc(N2C(=O)/C(=C/c3cc(Cl)c(OP(=O)(O)O)c(Cl)c3)OC2=S)cc1
